Drawing on patent US20200087258A1, “INHIBITOR OF CITRATE TRANSPORTER AND THEIR USE IN THERAPY” (Eternygen GmbH, priority 2017, published 2020), this text covers IC50 for one compound.

The target of the assay is T1, GLUT1 (Homo sapiens, UniProt P11166).
T1 construct: Huh-7 cells which endogenously express GLUT1; endogenous in cells; host or cells: Huh-7
T1 sequence (P11166 1-492): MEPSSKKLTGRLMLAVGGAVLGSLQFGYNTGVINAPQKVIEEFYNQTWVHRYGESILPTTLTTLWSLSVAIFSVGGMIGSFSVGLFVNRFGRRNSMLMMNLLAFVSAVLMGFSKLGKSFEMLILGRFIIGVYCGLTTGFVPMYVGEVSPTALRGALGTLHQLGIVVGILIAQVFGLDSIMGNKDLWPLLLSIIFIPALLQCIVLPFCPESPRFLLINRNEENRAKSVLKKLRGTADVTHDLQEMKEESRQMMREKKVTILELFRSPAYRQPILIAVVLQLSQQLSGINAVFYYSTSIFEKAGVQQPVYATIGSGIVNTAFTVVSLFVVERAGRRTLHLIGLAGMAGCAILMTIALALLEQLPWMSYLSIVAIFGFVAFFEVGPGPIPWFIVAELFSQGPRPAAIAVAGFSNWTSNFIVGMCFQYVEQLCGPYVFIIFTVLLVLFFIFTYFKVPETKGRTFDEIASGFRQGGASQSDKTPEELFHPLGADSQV
Briefly: 3H-glucose uptake counter assay in Huh7 cells endogenously expressing GLUT1. The assay is classed as cell-based. The following applies: endogenous GLUT1. As for the experimental part:
The compound was obtained by screening of a library containing more than 50,000 lead-like compounds and fragments. The library was tested using a functional citrate uptake assay with HEK293 cells overexpressing recombinant human INDY. The following hit confirmation was conducted in the same assay system. To confirm the activity of selected compounds on the target INDY another cell assay was conducted. In this assay system citrate uptake was measured using HepG2 cells which endogenously express INDY. Furthermore selectivity of selected compounds was tested for two other transporters in different assay systems. The first transporter was the glutamate transporter GLT-1 tested in a glutamate uptake assays using HEK293 cells overexpressing recombinant human GLT-1. The second transporter was the glucose transporter GLUT1 tested in a glucose uptake assay using Huh-7 cells which endogenously express GLUT1. Compounds were considered to be selective with an at least 5-fold higher activity for INDY than for the other two transporters.
Cells were maintained in cell medium using cell culture grade flasks (CellSTACK Corning, 500 cm2 dishes or T175 depending on cell number). The selection antibiotic and G418 (800 μg/ml) was added during cultivation but not for seeding into assay plates. For splitting, cells were washed with PBS (w/o Ca2+, Mg2+, phenol red) and detached with Trypsin/EDTA. Throughout cultivation cells were kept sub-confluent. Detached cells (50,000 cells/well) were seeded in 96-well plates (white, clear bottom from Corning #655098) and incubated over night before usage in the assay. The following media were used. For HEK293 cells expressing INDY MEM (PAA)+10% FCS+1×P/S+2 mM L-Gln; for HEK293 cells expressing GLT-1 DMEM (Gibco)+10% FCS+400 µg/ml G418; for Huh7 cells DMEM (Gibco)+10% FCS+2 mM L-Gin (+1×P/S); for HepG2 cells MEM (PAA, Cat # E15-024)+10% FCS+2 mM L-Gin+1×NEAA+1 mM Na-Pyruvat […]
Glucose uptake in Huh7 cells was measured as a counter assay. […] After 20 min incubation at RT plates were measured using TopCount system, Perkin Elmer. […]

For orientation: IC50 means the concentration needed to halve the response being measured. Compound `O=C(NCc1ccccc1F)C1CCN(S(=O)(=O)/C=C/c2ccccc2)CC1` [Example 5] returned a 50% inhibitory concentration (IC50) of over 50 µM.
